Assay results from US20130310421A1, “TREATMENT OF AMYLOID BETA AMYLOIDOSIS” (Temple University - Of The Commonwealth System of Higher …, priority 2012, published 2013).
“Also recorded” adds a separate entry of the source.

Tests used:
[1] = tested on: γ-secretase-mediated cleavage of Notch; test: γ-secretase-mediated cleavage of Notch (NICD western blot) in transfected N2A-APPswe cells; assay type: cell-based; details: N2A-APPswe cells transfected with Myc-tagged mAE-Notch-1, 24-hour incubation vs vehicle
Experimental: For transfection studies, N2A-APPswe cells were transfected with 1 μg Myc-tagged mAE-Notch-1 complementary DNA overnight (a generous gift from Dr. L. D'Adamio, Albert Einstein Medical College, NY) by using Lipofectamine 2000 (Invitrogen). The media were removed and fresh media containing MK-591, L685, 458 or vehicle was added. After a 24-hour incubation, cell lysates were collected and Notch intracellular domain (NICD) expression levels assayed by western blot analysis.

Tg2576 mice = test: General health and blood parameters of Tg2576 mice on chronic MK-591 diet; assay type: in vivo, mouse
Experimental: The Tg2576 transgenic mice expressing human APP with the Swedish mutation (K670N/M671L) used in these studies were previously described (Pratico D et al. J Neurosci 2001, 21(12):4183-4187). The mice were genotyped by polymerase chain reaction (PCR) analysis using tail DNA and kept in a pathogen-free environment, one 12-hour light/dark cycle and had access to food and water ad libitum. All the experiments presented herein were performed with female mice. Starting at 7 months of age, mice were randomized to receive MK-591 (40 mg/kg weight) (n=11) or vehicle (n=9) in their chow diet for 8 months until they were 15 months old. Considering that each mouse eats on average 5 g/day of chow diet and the diet is formulated for 320 mg MK-591 pwer kg diet (Harlan Teklad, Wis., USA), the final dose of the active drug was approximately 40 mg/kg weight/day.
Starting at seven months of age Tg2576 mice were randomized to receive MK-591 (320 mg/kg diet) or vehicle in their chow diet for 8 months before being sacrificed. Considering that each mouse eats on average 5 g/day of chow diet, the final dose of the active drug was approximately 40 mg/kg weight/day. By the end of the study, body weight, total plasma cholesterol, triglycerides and blood cell counts were not different between the two groups (not shown).

3xTg mice = test: Electrophysiology of hippocampal slices (fEPSP, PPF, LTP) of 3xTg mice; assay type: in vivo, mouse; details: 3xTg-MK-591 mice, mean +/- SEM
Experimental: The 3xTg mice harboring a mutant amyloid precursor protein (APP; KM670/671NL), a human mutant PS1 (M146V) knockin, and tau (P301L) transgenes, wild type mice (WT), and mice genetically deficient for FLAPKO (FLAPKO) used in this study were reported previously (Oddo S et al. Neuron 2003, 39:409-421; Byrum R S et al. J Exp Med 1997, 185:1065-1075). All the animals were backcrossed 10 times on the same genetic background C57BL6/SJL. The FLAPKO mice were crossbred several times with 3xTg mice to obtain founder animals (3xTg/FLAPKO), which were then crossed with each other. The animals from these crosses were used for the studies. […]
Six month old mice (n=# slices/# animals): WT (n=23/8); 3xTg (n=21/7); 3xTg-FLAPKO (n=21/6); 3xTg plus MK-591 (n=10/3) were sacrificed by rapid decapitation and brains were put into ice-cold artificial cerebral spinal fluid (CSF) in which sucrose (248 mM) was substituted for NaCl. […] We recorded field excitatory postsynaptic potentials (fEPSPs) from the CAl stratum radiatum by using an extracellular glass pipette ([…]) filled with ACSF. […] Baseline was recorded for 20 mins prior to tetanization with pulses every 30 seconds. […] The fEPSP rise/slope (mV/ms) between 30 and 90% was measured offline using Clampfit 10.3 (Molecular Devices, LLC) and normalized to the mean rise/slope of the baseline. […]

[2] = MK-591 approximately 40 mg/kg weight/day for 8 months vs vehicle, end of study
[3] = MK-591 approximately 40 mg/kg weight/day in chow for 8 months

## CC(C)C[C@H](NC(=O)[C@H](Cc1ccccc1)C[C@@H](O)[C@H](Cc1ccccc1)NC(=O)OC(C)(C)C)C(=O)N[C@@H](Cc1ccccc1)C(N)=O [L685,458]
[1]
  Notch intracellular domain (NICD) levels: significant reduction

## CC(C)(C)Sc1c(CC(C)(C)C(=O)O)n(Cc2ccc(Cl)cc2)c2ccc(OCc3ccc4ccccc4n3)cc12 [MK-591, 3-[3-tert-butylsulfanyl-1-[(4-chlorophenyl)methyl]-5-(quinolin-2-ylmethoxy)indol-2-yl]-2,2,-dimethylpropanoic acid]
Tg2576 mice; [2]
  blood cell counts: not different
  total plasma cholesterol: not different
  triglycerides: not different
Tg2576 mice; [3]
  overall general health: No macroscopic effect
  post-mortem macroscopic pathology of organs (spleen, liver, thymus, ileum): no sign of macroscopic pathology
Tg2576 mice; MK-591 approximately 40 mg/kg weight/day in chow for 8 months vs vehicle
  body weight: no significant difference; also recorded: not different
3xTg mice; n=10 slices, 3xTg 159.9%, WT 274.6%
  LTP magnitude as percentage of baseline, 0-10 minutes post-tetanus: 272.5%+/−13.2%
3xTg mice; 3xTg 121.0%, WT 202.6%
  LTP magnitude as percentage of baseline, 170-180 minutes post-tetanus: 202.5%+/−9.4%
